Source: PMC9530166, “Allosteric regulation of glycogen breakdown by the second messenger cyclic di-GMP” (Nature Communications, 2022)

Columns and labels:
His6-GlgXE378A = assay: BCA reducing-end enzyme assay, GlgXE378A; type: biochemical, Streptomyces venezuelae; settings: 50 µM c-di-GMP, 0.05% glycogen from rabbit, 1 µM enzyme
Protocol: Fig. 2 c-di-GMP stimulates glycogen breakdown activity of GlgX in vitro. a Bicinchoninic acid (BCA) in vitro enzyme assay. The purple copper bicinchoninate complex indicating GlgX-mediated generation of reducing ends in glycogen was quantified by photometric measurements at 562 nm. A562 values were converted into reducing ends [µM glucose equivalents] based on D-glucose as a standard. Reactions contained 0.05% (w/v) glycogen from rabbit, 1 µM GlgX and increasing concentrations of c-di-GMP (0–100 µM). Source data are provided as a Source data file. b BCA assay containing 0.05% of either glycogen from rabbit, pullulan, amylopectin from maize or amylose from potato as substrates. Where appropriate, 1 µM GlgX or 50 µM c-di-GMP were added to the reaction samples. Source data are provided as a Source data file. c BCA assay as in a with or without c-di-GMP (50 µM), 0.05% glycogen from rabbit (S) and 1 µM Vnz25270, GlgX, the active site mutants GlgXD342A, GlgXE378A, GlgXD342A+E378A, or the c-di-GMP-binding mutant variant GlgXDETR49-52 as indicated. […]
Hydrolysis of carbohydrates was assessed in vitro by measuring the accumulation of reducing sugar ends using the BCA assay[42] and D-glucose as a standard for calibration (Supplementary Fig. 11). […] 125 μl sample aliquots were transferred in duplicates to a 96 well plate and the absorbance at 562 nm was measured using a plate reader.

GlgXE47A-R49A = assay: Fluorescence polarization binding, GlgXE47A-R49A; design: species or system Streptomyces venezuelae
Source text: Fig. 5 Structure of the S. venezuelae GlgX-c-di-GMP complex. a Ribbon diagram of the S. venezuelae GlgX-c-di-GMP complex with one GlgX subunit colored cyan and the other salmon. Shown as sticks are the c-di-GMP molecules bound at each end of the antiparallel dimer. […] There was clear density for each c-di-GMP molecule. b Close up of the GlgX-c-di-GMP binding interaction. Key residues mediating contacts to the c-di-GMP are shown as sticks and labeled. Hydrogen bonds from GlgX residues that specify binding to the guanine are indicated by yellow dashed lines. c Fluorescence polarization (FP) binding isotherm showing interaction of GlgX, GlgXE47A-R49A and GlgXR438A-R579A for F-c-di-GMP in red, green and blue respectively. Also shown is the binding isotherm for GlgX binding to F-c-di-AMP in black. […] The y-axis and x-axis are millipolarization (mP) units and GlgX concentration (μM), respectively. Shown are representative binding curves for each. The experiments were performed in technical triplicates and the error between measurements reported. […]
Thus, we used this F-tagged c-di-GMP in fluorescence polarization (FP) studies to quantify the interaction between GlgX and c-di-GMP. […] To ensure that the presence of the fluorescent tag was not impacting the GlgX interaction with c-di-GMP we used microscale thermophoresis (MST) to quantify c-di-GMP binding to GlgX. […]

SMILES: Nc1nc2c(ncn2[C@@H]2O[C@@H]3CO[P@](=O)(O)O[C@H]4[C@@H](O)[C@H](n5cnc6c(=O)[nH]c(N)nc65)O[C@@H]4CO[P@](=O)(O)O[C@H]3[C@H]2O)c(=O)[nH]1 [c-di-GMP, bis-(3′−5′)-cyclic diguanosine monophosphate]
- stimulation of enzyme activity by c-di-GMP (His6-GlgXE378A): could not be stimulated
- binding to mutant in FP (GlgXE47A-R49A): weak, nonsaturable binding
